The text below walks through data of patent publication US8497262B2, “Therapeutic pyrazolonaphthyridine derivatives” (Dart NeuroScience (Cayman) Ltd, priority 2007, dated 2013).

Experiment [1] concerns the target GABAA central benzodiazepine receptor. The experiment is described as follows: Benzodiazepine binding assay ((3H)-flunitrazepam displacement). As to conditions: read-out: BZ binding assay (IC50); rat whole brain (except cerebellum) membranes, 1 nM (3H)-flunitrazepam, 3-concentration dose response curve.
Experiment [2] concerns GABAA receptors. The experiment is described as follows: Electrophysiology assay (two-electrode voltage clamp, Xenopus oocytes expressing GABAA receptors). The format is cell-based. The conditions noted are these: positive (Pos) or negative (Neg) modulation of GABA EC10 current at a screening concentration of 10 μM; receptor subtype not stated. On the procedure:
The modulation of GABAA function is determined by changes in current as determined in an electrophysiology assay, as is detailed below.
mRNA was prepared from lyophilized plasmid pellets containing cDNA inserts encoding the specific GABAA receptor subunit. cDNAs encoding the α2, α3, and γ3 subunits were subcloned into pBluescript, SK^−. cDNAs encoding the α1 and α5 subunits were subcloned into prC while cDNA encoding the β2 subunit was subcloned into pcDNA1. The cDNA construct encoding the γ2s subunit is in the pGH19 expression construct. Overnight cultures of transformed DH5a bacterial cells were performed to grow sufficient quantities for maxiprep isolation of the plasmid cDNA. The resulting plasmid cDNA was linearized by digestion with an appropriate restriction enzyme that cleaves distal to the cDNA insert (XbaI for α1,2, β2, and γ3 or NotI for α3,5 and γ2, respectively). Following digestion, plasmid cDNA was treated with proteinase K and extracted with phenol/chloroform/isoamyl alcohol, followed by ethanol precipitation. cDNA quality was assessed by agarose-gel electrophoresis (1.5% agarose gel). Samples were stored at −20° C. until use. In vitro transcription was performed with T7 RNA polymerase. mRNA was then stored at −80° C. until use. Plasmids were linearized with appropriate restriction enzymes before in vitro transcription using the Message Machine kit (Ambion, Austin, Tex.).
GABAA receptor expression in Xenopus oocytes: Following 45 min of 0.15% Tricaine anesthesia, an ovarian section containing the follicular oocytes was removed from the frog through a lateral abdominal incision. Oocytes were immediately placed in a calcium-free solution (NaCl 96 mM, MgCl2 1 mM, KCl 2 mM, Hepes 50 mM, pyruvate 2.5 mM, gentamycin 100 μg/mL, penicillin-streptomycin 50 U/mL, pH 7.4). Following 1.5-2 hour incubation in 0.2% collagenase (type II, Sigma Chemical Co., St. Louis, Mo.) at room temperature, individual Dumont stage V and VI oocytes were transferred to an incubator and maintained overnight in Barth's solution (NaCl 84 mM, NaHCO3 2.4 mM, MgSO4 0.82 mM, KCl 1 mM, Ca(NO3)2 0.33 mM, CaCl2 0.41 mM, Tris/HCl 7.5 mM, pyruvate 2.5 mM, gentamycin 50 μg/mL, penicillin-streptomycin, 100 units/mL, pH 7.4) at 18-20° C. and used for experiments 1-5 days post-injection. Oocytes were injected solution using an electronic microinjector (Drummond, Broomall, Pa.) with […] of RNA containing 0.3-0.5 ng of each subunit RNA in a 1:1:1 ratio. The injected oocytes were used for experiments after 1-5 days of incubation in Barth's solution at 18-20° C.
Measurements of ion currents from oocytes expressing GABAA receptors were performed using a Warner two-electrode voltage-clamp amplifier (Warner Instruments, Inc., Foster City, Calif.) (Park-Chung, M., et al. (1999) Brain Res. 830: 72-87 incorporated herein in its entirety). Microelectrodes were fabricated from borosilicate glass capillaries with a programmed pipette puller (Sutter Instrument Co., CA). Microelectrode resistance was 1-3 MΩ when filled with 3 M KCl. The oocyte recording chamber was continuously perfused with Ringer solution. Oocytes were clamped at a holding potential of −70 mV during data acquisition. The membrane current was filtered at 10 Hz and sampled at 100 Hz. Compounds were applied by a gravity-driven external perfusion system. The working volume of the recording chamber was 30 μL and the rate of the perfusion was approximately 50 μL/sec. Compound application was 10-20 sec followed by a 90 sec wash. Data acquisition and external perfusion was computer controlled by custom-developed software. All experiments were performed at room temperature (22-24° C.). Dose-response data from each oocyte were fitted to the Hill equation by non-linear regression using the equation: IGABA=Emax/(1+(EC50/c)^n^H) Emax is the maximum response, EC50 is the concentration producing 50% of the maximal response, nH is the Hill coefficient and c is the concentration of agonist. […]

The structures appear in SMILES notation.

`O=c1c2c[nH]c3ccc(N4CCNCC4)nc3c-2nn1-c1ccccc1` [6a, 2-Phenyl-8-(piperazin-1-yl)-2,5-dihydro-pyrazolo[4,3-c][1,5]naphthyridin-3-one]: the IC50 in experiment [1] is less than 1000 nM. The EP result in experiment [2] is given as “Neg”.

In the case of `CN1CCN(c2ccc3[nH]cc4c(=O)n(-c5ccccc5)nc-4c3n2)CC1` [6b, 8-(4-Methyl-piperazin-1-yl)-2-phenyl-2,5-dihydro-pyrazolo[4,3-c]-[1,5]naphthyridin-3-one], the IC50 in experiment [1] is less than 1000 nM. Also, the EP result in experiment [2] was “Neg”.

Consider `O=c1c2c[nH]c3ccc(N4CCOCC4)nc3c-2nn1-c1ccccc1` [6c, 8-Morpholin-4-yl-2-phenyl-2,5-dihydro-pyrazolo[4,3-c][1,5]naphthyridin-3-one], for which the IC50 in experiment [1] is less than 1 nM. Also, the EP result in experiment [2] is listed as “Neg”.

On to `O=c1c2c[nH]c3ccc(N4CCC(O)CC4)nc3c-2nn1-c1ccccc1` [6d, 8-(4-Hydroxy-piperidin-1-yl)-2-phenyl-2,5-dihydro-pyrazolo[4,3-c][1,5]naphthyridin-3-one], for which the IC50 in experiment [1] is less than 1 nM.

With `CC1CN(c2ccc3[nH]cc4c(=O)n(-c5ccccc5)nc-4c3n2)CCN1` (stereo not shown) [6e, 8-(3-Methyl-piperazin-1-yl)-2-phenyl-2,5-dihydro-pyrazolo[4,3-c][1,5]naphthyridin-3-one], the IC50 in experiment [1] is less than 1000 nM.

`O=c1c2c[nH]c3ccc(N4CCCC(O)C4)nc3c-2nn1-c1ccccc1` (stereo not shown) [6f, 8-(3-Hydroxy-piperidin-1-yl)-2-phenyl-2,5-dihydro-pyrazolo[4,3-c][1,5]naphthyridin-3-one]: the IC50 in experiment [1] is less than 1000 nM.

Consider `O=c1c2c[nH]c3ccc(N4CCN(c5ccc(F)cc5)CC4)nc3c-2nn1-c1ccccc1` [6g, 8-[4-(4-Fluoro-phenyl)-piperazin-1-yl]-2-phenyl-2,5-dihydro-pyrazolo[4,3-c][1,5]naphthyridin-3-one], for which the IC50 in experiment [1] was less than 1000 nM.

On to `O=c1c2c[nH]c3ccc(N4CCCNCC4)nc3c-2nn1-c1ccccc1` [6h, 8-[1,4]-Diazepan-1-yl-2-phenyl-2,5-dihydro-pyrazolo[4,3-c][1,5]naphthyridin-3-one], for which the concentration for half-maximal inhibition (IC50) in experiment [1] was less than 1000 nM.

As for `O=c1c2c[nH]c3ccc(N4CCCC(CO)C4)nc3c-2nn1-c1ccccc1` (stereo not shown) [6i, 8-(3-Hydroxymethyl-piperidin-1-yl)-2-phenyl-2,5-dihydro-pyrazolo[4,3-c][1,5]naphthyridin-3-one], the IC50 in experiment [1] is less than 1 nM.

On to `O=C1CN(c2ccc3[nH]cc4c(=O)n(-c5ccccc5)nc-4c3n2)CCN1` [6j, 8-(3-Oxo-piperazin-1-yl)-2-phenyl-2,5-dihydro-pyrazolo[4,3-c][1,5]naphthyridin-3-one], for which the IC50 in experiment [1] was less than 1000 nM.

Take `O=c1c2c[nH]c3ccc(N4CCCC4)nc3c-2nn1-c1ccccc1` [6k, 2-Phenyl-8-pyrrolidin-1-yl-2,5-dihydro-pyrazolo[4,3-c][1,5]naphthyridin-3-one]: in experiment [1], the IC50 is less than 1 nM.

`O=c1c2c[nH]c3ccc(N4CCN(c5ccccc5)CC4)nc3c-2nn1-c1ccccc1` [6l, 2-Phenyl-8-(4-phenyl-piperazin-1-yl)-2,5-dihydro-pyrazolo[4,3-c][1,5]naphthyridin-3-one]: the IC50 in experiment [1] was less than 1000 nM. Moreover, in experiment [2], the EP result is “Pos”.

Consider `CC1CN(c2ccc3[nH]cc4c(=O)n(-c5ccccc5)nc-4c3n2)CC(C)O1` (stereo not shown) [6m, 8-(2,6-Dimethyl-morpholin-4-yl)-2-phenyl-2,5-dihydro-pyrazolo[4,3-c][1,5]naphthyridin-3-one], for which the half-maximal inhibitory concentration (IC50) in experiment [1] was less than 1000 nM. Further, in experiment [2], the EP result is “Pos”.

In the case of `CN1CCN(c2ccc3[nH]cc4c(=O)n(-c5ccccn5)nc-4c3n2)CC1` [6n, 8-(4-Methyl-piperazin-1-yl)-2-pyridin-2-yl-2,5-dihydro-pyrazolo[4,3-c][1,5]naphthyridin-3-one], the IC50 in experiment [1] is less than 1000 nM.

Take `O=c1c2c[nH]c3ccc(N4CCOCC4)nc3c-2nn1-c1ccccn1` [6o, 8-Morpholin-4-yl-2-pyridin-2-yl-2,5-dihydro-pyrazolo[4,3-c][1,5]naphthyridin-3-one]: in experiment [1], the IC50 was less than 1000 nM.

`CN1CCCN(c2ccc3[nH]cc4c(=O)n(-c5ccccn5)nc-4c3n2)CC1` [6p, 8-(4-Methyl-[1,4]diazepan-1-yl)-2-pyridin-2-yl-2,5-dihydro-pyrazolo[4,3-c][1,5]naphthyridin-3-one]: the IC50 in experiment [1] was less than 1000 nM.

For `CC1CN(c2ccc3[nH]cc4c(=O)n(-c5ccccn5)nc-4c3n2)CCN1` (stereo not shown) [6q, 8-(3-Methyl-piperazin-1-yl)-2-pyridin-2-yl-2,5-dihydro-pyrazolo[4,3-c][1,5]naphthyridin-3-one], in experiment [1], the IC50 was less than 1000 nM. Further, the EP result in experiment [2] is given as “Pos”.

In the case of `O=c1c2c[nH]c3ccc(N4CCC(O)CC4)nc3c-2nn1-c1ccccn1` [6r], the IC50 in experiment [1] was less than 1 nM.

Turning to `O=c1c2c[nH]c3ccc(N4CCNCC4)nc3c-2nn1-c1ccccn1` [6s, 8-piperazin-1-yl-2-pyridin-2-yl-2,5-dihydro-pyrazolo[4,3-c][1,5]naphthyridin-3-one], the IC50 in experiment [1] was less than 1000 nM. In addition, in experiment [2], the EP result is given as “Pos”.

On to `COc1ccc(-n2nc3c4nc(N5CCN(C)CC5)ccc4[nH]cc-3c2=O)cc1` [6t, 2-(4-Methoxy-phenyl)-8-(4-methyl-piperazin-1-yl)-2,5-dihydro-pyrazolo[4,3-c][1,5]naphthyridin-3-one], for which the IC50 in experiment [1] was less than 1 nM. Further, the EP result in experiment [2] is “Neg”.

In the case of `O=c1c2c[nH]c3cc(N4CCNCC4)ncc3c-2nn1-c1ccccc1` [compound 14, 2-Phenyl-7-(piperazin-1-yl)-2,5-dihydro-pyrazolo[4,3-c][1,6]naphthyridin-3-one], the half-maximal inhibitory concentration (IC50) in experiment [1] is more than 1000 nM. The EP result in experiment [2] is on record as “Neg”.

Consider `O=c1c2c[nH]c3c(N4CCNCC4)nccc3c-2nn1-c1ccccc1` [compound 17, 2-Phenyl-6-(piperazin-1-yl)-2,5-dihydro-pyrazolo[4,3-c][1,7]naphthyridin-3-one], for which, in experiment [1], the IC50 was more than 1000 nM.
